For 23 compounds, IC50 results are on record in patent publication US10906915B2, “Substituted pyrazoloazepin-4-ones and their use as phosphodiesterase inhibitors” (LEO Pharma A/S, priority 2016, dated 2021).

human PDE4D catalytic domain, sequence (Q08499 380-740 limits assumed): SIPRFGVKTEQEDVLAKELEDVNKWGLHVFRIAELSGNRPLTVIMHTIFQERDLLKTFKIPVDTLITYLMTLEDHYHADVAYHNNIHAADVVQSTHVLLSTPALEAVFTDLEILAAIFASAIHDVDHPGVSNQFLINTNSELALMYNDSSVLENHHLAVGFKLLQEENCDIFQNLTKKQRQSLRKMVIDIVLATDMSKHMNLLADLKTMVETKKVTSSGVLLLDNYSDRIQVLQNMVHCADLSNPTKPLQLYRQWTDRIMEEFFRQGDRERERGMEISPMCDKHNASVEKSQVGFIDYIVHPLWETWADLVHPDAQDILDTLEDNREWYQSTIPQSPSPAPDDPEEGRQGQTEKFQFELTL

The assay has as its target human PDE4D catalytic domain (UniProt no. Q08499) (Homo sapiens (Human), UniProt Q08499). The experiment in a line: PDE4 assay (TR-FRET, FAM-cAMP cleavage). It is filed as biochemical. The conditions noted are these: human PDE4D catalytic domain; molar concentration giving 50% inhibition of substrate cleavage; read-out: PDE4 IC50 range. The procedure: The human PDE4D catalytic domain (UniProt no. Q08499 [[…]]) was incubated with a mixture of non-labelled cAMP (cyclic adenosine monophosphate) and fluorescein amidite (FAM) conjugated cAMP and titrated test or reference compound. Following brief incubation the enzymatic reaction was stopped by addition of binding buffer containing nanoparticles with immobilized trivalent metal ions capable of binding 1) AMP phospho groups and 2) terbium (Tb) donor fluorophores. Subsequent excitation of the Tb donor triggers time-resolved FRET to adjacent FAM acceptor molecules resulting in light emission. In the presence of a PDE4 inhibitor, AMP generation was reduced resulting in a lower fluorescence signal. The cAMP phosphodiester is not bound by the detection system.
The results were calculated as the molar concentrations resulting in 50% inhibition of the substrate cleavage compared to controls samples, and are expressed as a range of IC50 (nM).
(TR-FRET usually uses a lanthanide donor and a delayed reading to cut background.)
`CCc1nn(CCCOC(=O)c2ccc(C)cc2)c2c1C(=O)NCC1(CCOCC1)C2` [Example 1, 3-(3-Ethyl-4-oxo-spiro[6,8-dihydro-5H-pyrazolo[4,3-c]azepine-7,4′-tetrahydropyran]-1-yl)propyl 4-methylbenzoate]: the IC50 (usually the concentration that gives 50% inhibition) is less than 100 nM.

On to `CCc1ccc(C(=O)OCCCn2nc(CC)c3c2CC2(CCOCC2)CNC3=O)cc1` [Example 2, 3-(3-Ethyl-4-oxo-spiro[6,8-dihydro-5H-pyrazolo[4,3-c]azepine-7,4′-tetrahydropyran]-1-yl)propyl 4-ethylbenzoate], for which the IC50 was less than 100 nM.

Consider `CCc1nn(C[C@@H](C)COC(=O)c2ccc(S(=O)(=O)NC)cc2)c2c1C(=O)NCC1(CCOCC1)C2` [Example 3, [(2R)-3-(3-Ethyl-4-oxo-spiro[6,8-dihydro-5H-pyrazolo[4,3-c]azepine-7,4′-tetrahydro-pyran]-1-yl)-2-methyl-propyl] 4-(methylsulfamoyl)benzoate], for which the IC50 was less than 100 nM.

Regarding `CCc1nn(C[C@@H](C)COC(=O)c2ccc(S(=O)(=O)N(C)C)cc2)c2c1C(=O)NCC1(CCOCC1)C2` [Example 4, [(2R)-3-(3-Ethyl-4-oxo-spiro[6,8-dihydro-5H-pyrazolo[4,3-c]azepine-7,4′-tetrahydro-pyran]-1-yl)-2-methyl-propyl] 4-(dimethylsulfamoyl)benzoate], the IC50 is less than 100 nM.

For the compound `CCc1nn(C[C@@H](C)COC(=O)c2ccc(S(C)(=O)=O)cc2)c2c1C(=O)NCC1(CCOCC1)C2` [Example 5, [(2R)-3-(3-ethyl-4-oxo-spiro[6,8-dihydro-5H-pyrazolo[4,3-c]azepine-7,4′-tetrahydro-pyran]-1-yl)-2-methyl-propyl] 4-methylsulfonylbenzoate], the half-maximal inhibitory concentration (IC50) was less than 100 nM.

With `CCc1nn(CCCOC(C)=O)c2c1C(=O)NCC1(CCOCC1)C2` [Example 6, 3-(3-ethyl-4-oxo-spiro[6,8-dihydro-5H-pyrazolo[4,3-c]azepine-7,4′-tetrahydropyran]-1-yl)propyl acetate], the IC50 lay within 100 to 500 nM.

With `CCc1nn(CCCOC(=O)C(C)C)c2c1C(=O)NCC1(CCOCC1)C2` [Example 7, 3-(3-ethyl-4-oxo-spiro[6,8-dihydro-5H-pyrazolo[4,3-c]azepine-7,4′-tetrahydropyran]-1-yl)propyl 2-methylpropanoate], the 50% inhibitory concentration (IC50) fell in the range of 100 to 500 nM.

As for `CCc1nn(CCCOC(=O)CCOC)c2c1C(=O)NCC1(CCOCC1)C2` [Example 8, 3-(3-ethyl-4-oxo-spiro[6,8-dihydro-5H-pyrazolo[4,3-c]azepine-7,4′-tetrahydropyran]-1-yl)propyl 3-methoxypropanoate], the IC50 is more than 500 nM.

As for `CCc1nn(CCCOC(=O)C2CCCC2)c2c1C(=O)NCC1(CCOCC1)C2` [Example 9, 3-(3-ethyl-4-oxo-spiro[6,8-dihydro-5H-pyrazolo[4,3-c]azepine-7,4′-tetrahydropyran]-1-yl)propyl cyclopentanecarboxylate], the half-maximal inhibitory concentration (IC50) is less than 100 nM.

As to `CCc1nn(CCCOC(=O)C2CC(O)C2)c2c1C(=O)NCC1(CCOCC1)C2` (centres unmarked) [Example 10, 3-(3-ethyl-4-oxo-spiro[6,8-dihydro-5H-pyrazolo[4,3-c]azepine-7,4′-tetrahydropyran]-1-yl)propyl 3-hydroxycyclobutane-carboxylate], the IC50 was in the range of 100 to 500 nM.

As to `CCc1nn(CCCOC(=O)C(CC)CC)c2c1C(=O)NCC1(CCOCC1)C2` [Example 11, 3-(3-ethyl-4-oxo-spiro[6,8-dihydro-5H-pyrazolo[4,3-c]azepine-7,4′-tetrahydropyran]-1-yl)propyl 2-ethylbutanoate], the IC50 is less than 100 nM.

In the case of `CCc1nn(CCCOC(=O)COC(C)C)c2c1C(=O)NCC1(CCOCC1)C2` [Example 12, 3-(3-ethyl-4-oxo-spiro[6,8-dihydro-5H-pyrazolo[4,3-c]azepine-7,4′-tetrahydropyran]-1-yl)propyl 2-isopropoxyacetate], the concentration for half-maximal inhibition (IC50) is more than 500 nM.

With `CCc1nn(CCCOC(=O)CCSC)c2c1C(=O)NCC1(CCOCC1)C2` [Example 13, 3-(3-ethyl-4-oxo-spiro[6,8-dihydro-5H-pyrazolo[4,3-c]azepine-7,4′-tetrahydropyran]-l-yl)propyl 3-methylsulfanylpropanoate], the IC50 fell in the range of 100 to 500 nM.

`CCc1nn(CCCOC(=O)C2CC(F)(F)C2)c2c1C(=O)NCC1(CCOCC1)C2` [Example 14, 3-(3-ethyl-4-oxo-spiro[6,8-dihydro-5H-pyrazolo[4,3-c]azepine-7,4’-tetrahydropyran]-1-yl)propyl 3,3-difluorocyclobutane-carboxylate]: the IC50 fell in the range of 100 to 500 nM.

For `CCc1nn(CCCOC(=O)c2cccc(C)c2)c2c1C(=O)NCC1(CCOCC1)C2` [Example 15, 3-(3-ethyl-4-oxo-spiro[6,8-dihydro-5H-pyrazolo[4,3-c]azepine-7,4′-tetrahydropyran]-1-yl)propyl 3-methylbenzoate], the IC50 was less than 100 nM.

As for `CCc1nn(CCCOC(=O)c2ccccc2C)c2c1C(=O)NCC1(CCOCC1)C2` [Example 16, 3-(3-ethyl-4-oxo-spiro[6,8-dihydro-5H-pyrazolo[4,3-c]azepine-7,4′-tetrahydropyran]-1-yl)propyl 2-methylbenzoate], the IC50 was less than 100 nM.

On to `CCc1nn(CCCOC(=O)c2ccccc2O)c2c1C(=O)NCC1(CCOCC1)C2` [Example 17, 3-(3-ethyl-4-oxo-spiro[6,8-dihydro-5H-pyrazolo[4,3-c]azepine-7,4′-tetrahydropyran]-1-yl)propyl 2-hydroxybenzoate], for which the IC50 is less than 100 nM.

As to `CCc1nn(CCCOC(=O)c2cccc(F)c2)c2c1C(=O)NCC1(CCOCC1)C2` [Example 18, 3-(3-ethyl-4-oxo-spiro[6,8-dihydro-5H-pyrazolo[4,3-c]azepine-7,4′-tetrahydropyran]-1-yl)propyl 3-fluorobenzoate], the half-inhibitory concentration (IC50) is less than 100 nM.

As for `CCc1nn(CCCOC(=O)c2ccccc2F)c2c1C(=O)NCC1(CCOCC1)C2` [Example 19, 3-(3-ethyl-4-oxo-spiro[6,8-dihydro-5H-pyrazolo[4,3-c]azepine-7,4′-tetrahydropyran]-1-yl)propyl 2-fluorobenzoate], the half-inhibitory concentration (IC50) is less than 100 nM.

Turning to `CCc1nn(CCCOC(=O)c2ccc(F)cc2)c2c1C(=O)NCC1(CCOCC1)C2` [Example 20, 3-(3-ethyl-4-oxo-spiro[6,8-dihydro-5H-pyrazolo[4,3-c]azepine-7,4′-tetrahydropyran]-1-yl)propyl 4-fluorobenzoate], the half-inhibitory concentration (IC50) was less than 100 nM.

In the case of `CCc1nn(CCCOC(=O)[C@H]2CC[C@@H](O)CC2)c2c1C(=O)NCC1(CCOCC1)C2` [Example 21, 3-(3-ethyl-4-oxo-spiro[6,8-dihydro-5H-pyrazolo[4,3-c]azepine-7,4′-tetrahydropyran]-1-yl)propyl cis-4-hydroxycyclohexane-carboxylate], the IC50 lay within 100 to 500 nM.

Consider `CCc1nn(CCCOC(=O)[C@H]2CC[C@H](O)CC2)c2c1C(=O)NCC1(CCOCC1)C2` [Example 22, 3-(3-ethyl-4-oxo-spiro[6,8-dihydro-5H-pyrazolo[4,3-c]azepine-7,4′-tetrahydropyran]-1-yl)propyl trans-4-hydroxycyclohexane-carboxylate], for which the IC50 is 100 to 500 nM.

For the compound `CCc1nn(CCCOC(=O)c2cccc(C#N)c2)c2c1C(=O)NCC1(CCOCC1)C2` [Example 23, 3-(3-ethyl-4-oxo-spiro[6,8-dihydro-5H-pyrazolo[4,3-c]azepine-7,4′-tetrahydropyran]-1-yl)propyl 3-cyanobenzoate], the IC50 is less than 100 nM.
